# Key:
# Assay in all cases: relative viability (nuclei count vs DMSO), 5 days (fraction); higher = more cells survive
# AZD1208 + Dasatinib = compound: N[C@@H]1CCCN(c2c(/C=C3\SC(=O)NC3=O)cccc2-c2ccccc2)C1 [AZD1208] + Cc1nc(Nc2ncc(C(=O)Nc3c(C)cccc3Cl)s2)cc(N2CCN(CCO)CC2)n1 [Dasatinib] (partner 0.075 µM)
# In short: (§1)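 One day after seeding in 1536-well plates, lung cancer cell lines were dosed by pin tool. Dosing was either single-drug or a fixed anchor-drug dose plus five library-drug doses (not always all listed) in √10 steps. After 5 days, nuclei were stained in one fix-and-stain step and counted on 4× images, and relative viability is the nuclei count of treated wells over that of vehicle wells, given as the median of duplicate plates.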
# AZD1208 + OSI-027 = compound: N[C@@H]1CCCN(c2c(/C=C3\SC(=O)NC3=O)cccc2-c2ccccc2)C1 [AZD1208] + COc1cccc2cc(-c3nc([C@H]4CC[C@H](C(=O)O)CC4)n4ncnc(N)c34)[nH]c12 [OSI-027] (partner 0.5 µM)
# In short: as §1
# AZD1208 + Pemetrexed = compound: N[C@@H]1CCCN(c2c(/C=C3\SC(=O)NC3=O)cccc2-c2ccccc2)C1 [AZD1208] + Nc1nc2[nH]cc(CCc3ccc(C(=O)N[C@@H](CCC(=O)O)C(=O)O)cc3)c2c(=O)[nH]1 [Pemetrexed] (partner 0.2 µM)
# In short: as §1
# XMD14-99 + Tozasertib = compound: CN1CCN(CC1)C2=CC(=C(C=C2)NC3=NC(=C(S3)C(=O)C4=C(C=CC=C4Cl)Cl)N)OC [XMD14-99] + Cc1cc(Nc2cc(N3CCN(C)CC3)nc(Sc3ccc(NC(=O)C4CC4)cc3)n2)n[nH]1 [Tozasertib] (partner 0.1 µM)
# In short: as §1
cell line,measurement,setting,value
UMC-11,relative viability,AZD1208 + Dasatinib; first compound 0.08 µM,0.462
same,relative viability,AZD1208 + Dasatinib; first compound 0.253 µM,0.469
same,relative viability,AZD1208 + Dasatinib; first compound 0.8 µM,0.446
same,relative viability,AZD1208 + Dasatinib; first compound 2.53 µM,0.483
same,relative viability,AZD1208 + Dasatinib; first compound 8 µM,0.41
same,relative viability,AZD1208 + OSI-027; first compound 0.08 µM,0.333
same,relative viability,AZD1208 + OSI-027; first compound 0.253 µM,0.321
same,relative viability,AZD1208 + OSI-027; first compound 0.8 µM,0.321
same,relative viability,AZD1208 + OSI-027; first compound 2.53 µM,0.329
same,relative viability,AZD1208 + OSI-027; first compound 8 µM,0.294
same,relative viability,AZD1208 + Pemetrexed; first compound 0.08 µM,0.689
same,relative viability,AZD1208 + Pemetrexed; first compound 0.253 µM,0.718
same,relative viability,AZD1208 + Pemetrexed; first compound 0.8 µM,0.631
same,relative viability,AZD1208 + Pemetrexed; first compound 2.53 µM,0.594
same,relative viability,AZD1208 + Pemetrexed; first compound 8 µM,0.48
same,relative viability,XMD14-99 + Tozasertib; first compound 0.08 µM,0.196
same,relative viability,XMD14-99 + Tozasertib; first compound 0.8 µM,0.227
same,relative viability,XMD14-99 + Tozasertib; first compound 2.53 µM,0.231
same,relative viability,XMD14-99 + Tozasertib; first compound 8 µM,0.23

# — the supplement of paper PMC10307832
